According to ChEMBL document CHEMBL1909046, “DrugMatrix in vitro pharmacology data”:

Legend:
Insulin receptor = Insulin receptor (Rattus norvegicus, UniProt P15127); type: cell membranes, Wistar, Liver, Membrane
Glucocorticoid receptor = molecular target: T1, Glucocorticoid receptor (Homo sapiens, UniProt P04150); details: hela s3
T1 sequence (P04150 whole entry): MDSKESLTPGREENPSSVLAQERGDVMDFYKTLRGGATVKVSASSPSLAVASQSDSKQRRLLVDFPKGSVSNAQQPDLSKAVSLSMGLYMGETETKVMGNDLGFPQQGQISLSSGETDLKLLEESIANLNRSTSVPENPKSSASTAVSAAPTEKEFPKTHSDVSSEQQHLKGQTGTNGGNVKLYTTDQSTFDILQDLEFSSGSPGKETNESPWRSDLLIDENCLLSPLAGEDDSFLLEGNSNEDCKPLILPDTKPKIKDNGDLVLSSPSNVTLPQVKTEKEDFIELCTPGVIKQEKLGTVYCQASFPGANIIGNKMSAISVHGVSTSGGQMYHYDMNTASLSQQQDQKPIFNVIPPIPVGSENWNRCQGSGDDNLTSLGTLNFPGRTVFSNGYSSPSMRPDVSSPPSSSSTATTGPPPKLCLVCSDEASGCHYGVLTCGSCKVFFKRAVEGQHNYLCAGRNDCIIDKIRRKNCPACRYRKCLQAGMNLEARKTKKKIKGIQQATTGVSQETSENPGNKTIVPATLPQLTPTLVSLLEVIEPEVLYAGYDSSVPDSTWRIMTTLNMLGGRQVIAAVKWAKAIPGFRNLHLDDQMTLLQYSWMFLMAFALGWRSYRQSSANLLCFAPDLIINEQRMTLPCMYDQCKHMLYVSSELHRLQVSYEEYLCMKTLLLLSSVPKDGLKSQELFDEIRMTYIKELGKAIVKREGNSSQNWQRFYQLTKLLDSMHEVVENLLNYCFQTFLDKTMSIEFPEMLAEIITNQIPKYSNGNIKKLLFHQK

[1] = molecular target: 5-hydroxytryptamine receptor 6 (Homo sapiens, UniProt P50406); type: cell membranes, HeLa, Membrane
[2] = molecular target: T2, Cholecystokinin receptor type A (Homo sapiens, UniProt P32238); type: cell membranes, Membrane; details: 1321-n1
T2 sequence (P32238 whole entry): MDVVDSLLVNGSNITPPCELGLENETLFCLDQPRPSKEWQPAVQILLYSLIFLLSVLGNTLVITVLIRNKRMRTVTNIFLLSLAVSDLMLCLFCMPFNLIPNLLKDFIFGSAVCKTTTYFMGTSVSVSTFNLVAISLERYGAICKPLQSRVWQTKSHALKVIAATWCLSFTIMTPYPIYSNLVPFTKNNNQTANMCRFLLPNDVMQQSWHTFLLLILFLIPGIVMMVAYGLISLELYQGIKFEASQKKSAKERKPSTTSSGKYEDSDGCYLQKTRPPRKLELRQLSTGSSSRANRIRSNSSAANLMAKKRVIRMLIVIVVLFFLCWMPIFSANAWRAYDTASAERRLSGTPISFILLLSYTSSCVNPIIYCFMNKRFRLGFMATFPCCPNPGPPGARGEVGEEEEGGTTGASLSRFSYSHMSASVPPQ

Neutrophil elastase = molecular target: T3, Neutrophil elastase (Homo sapiens, UniProt P08246); type: tissue-based;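 also: inhibition of neutrophil elastase enzyme activity, measured with a p-nitroanilide-linked peptide substrate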
T3 sequence (P08246 whole entry): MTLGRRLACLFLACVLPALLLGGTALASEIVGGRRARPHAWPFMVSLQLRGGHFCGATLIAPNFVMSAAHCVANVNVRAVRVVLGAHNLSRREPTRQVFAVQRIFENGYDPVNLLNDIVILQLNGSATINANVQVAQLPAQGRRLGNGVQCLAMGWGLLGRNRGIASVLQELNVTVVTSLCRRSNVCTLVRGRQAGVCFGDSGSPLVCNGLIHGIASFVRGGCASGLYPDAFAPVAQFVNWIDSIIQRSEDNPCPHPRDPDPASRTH

[3] = molecular target: Mitogen-activated protein kinase 14 (Homo sapiens, UniProt Q16539); parameters: species or system Escherichia coli;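 also: inhibition of p38alpha enzyme activity in a biochemical kinase assay, with myelin basic protein serving as substrate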
[4] = molecular target: C-C chemokine receptor type 2 (Homo sapiens, UniProt P41597); type: cell membranes, Membrane; details: cho-k1
[5] = molecular target: Prostaglandin G/H synthase 1 (Homo sapiens, UniProt P23219); assay: biochemical; type: tissue-based, Platelet; details: platelet;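 also: inhibition of COX-1 enzyme activity, with arachidonic acid supplied as substrate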
Also: in other assays of this panel Not Active means under 50% inhibition at 10 µM.

Sequence of Insulin receptor (P15127 27-759 limits assumed): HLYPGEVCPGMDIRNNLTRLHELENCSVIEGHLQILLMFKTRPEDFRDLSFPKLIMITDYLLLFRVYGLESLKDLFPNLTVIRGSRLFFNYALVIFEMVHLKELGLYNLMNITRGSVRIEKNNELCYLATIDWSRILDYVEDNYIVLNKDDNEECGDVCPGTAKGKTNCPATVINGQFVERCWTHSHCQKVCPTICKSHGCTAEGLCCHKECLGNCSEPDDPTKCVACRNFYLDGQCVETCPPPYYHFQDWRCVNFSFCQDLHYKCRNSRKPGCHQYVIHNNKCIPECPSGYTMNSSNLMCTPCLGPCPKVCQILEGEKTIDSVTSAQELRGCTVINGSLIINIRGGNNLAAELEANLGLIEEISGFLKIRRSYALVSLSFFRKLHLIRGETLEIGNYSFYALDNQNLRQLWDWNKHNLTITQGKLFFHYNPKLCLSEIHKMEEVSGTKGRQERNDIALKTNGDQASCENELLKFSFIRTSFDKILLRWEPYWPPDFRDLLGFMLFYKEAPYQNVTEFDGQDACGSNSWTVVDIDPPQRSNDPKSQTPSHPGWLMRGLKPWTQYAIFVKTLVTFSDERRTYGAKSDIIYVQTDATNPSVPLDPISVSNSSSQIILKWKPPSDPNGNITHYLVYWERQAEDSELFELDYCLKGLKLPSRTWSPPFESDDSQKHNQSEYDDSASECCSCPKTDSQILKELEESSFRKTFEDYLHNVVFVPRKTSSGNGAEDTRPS
Sequence of Insulin receptor (P15127 764-1383 limits assumed): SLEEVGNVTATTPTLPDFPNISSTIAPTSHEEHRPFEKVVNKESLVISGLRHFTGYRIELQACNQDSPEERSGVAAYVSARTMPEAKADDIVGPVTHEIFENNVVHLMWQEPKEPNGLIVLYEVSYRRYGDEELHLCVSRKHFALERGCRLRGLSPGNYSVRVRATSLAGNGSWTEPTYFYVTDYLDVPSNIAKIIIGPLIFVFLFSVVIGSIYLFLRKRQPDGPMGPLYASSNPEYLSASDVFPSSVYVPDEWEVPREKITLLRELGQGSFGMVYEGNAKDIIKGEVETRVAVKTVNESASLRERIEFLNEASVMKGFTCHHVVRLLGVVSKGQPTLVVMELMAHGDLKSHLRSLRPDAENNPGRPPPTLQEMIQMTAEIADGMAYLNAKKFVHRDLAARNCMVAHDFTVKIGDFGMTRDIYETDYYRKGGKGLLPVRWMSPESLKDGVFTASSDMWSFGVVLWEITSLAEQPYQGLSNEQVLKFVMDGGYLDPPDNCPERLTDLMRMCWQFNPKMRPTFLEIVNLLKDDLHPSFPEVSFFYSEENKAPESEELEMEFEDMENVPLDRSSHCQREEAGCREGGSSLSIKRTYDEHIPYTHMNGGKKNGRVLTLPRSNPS
Sequence of 5-hydroxytryptamine receptor 6 (P50406 whole entry): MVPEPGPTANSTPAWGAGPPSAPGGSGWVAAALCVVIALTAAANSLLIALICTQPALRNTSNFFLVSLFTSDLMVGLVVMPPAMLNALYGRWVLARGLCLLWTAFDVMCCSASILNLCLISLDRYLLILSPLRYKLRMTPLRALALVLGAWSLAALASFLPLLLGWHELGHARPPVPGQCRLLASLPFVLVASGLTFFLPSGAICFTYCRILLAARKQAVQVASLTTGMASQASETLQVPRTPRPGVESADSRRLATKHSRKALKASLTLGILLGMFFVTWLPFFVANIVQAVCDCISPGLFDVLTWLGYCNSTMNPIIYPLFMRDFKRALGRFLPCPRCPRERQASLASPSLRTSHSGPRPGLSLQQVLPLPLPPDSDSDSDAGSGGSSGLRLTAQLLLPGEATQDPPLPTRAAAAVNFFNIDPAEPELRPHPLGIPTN
Sequence of Prostaglandin G/H synthase 1 (P23219 whole entry): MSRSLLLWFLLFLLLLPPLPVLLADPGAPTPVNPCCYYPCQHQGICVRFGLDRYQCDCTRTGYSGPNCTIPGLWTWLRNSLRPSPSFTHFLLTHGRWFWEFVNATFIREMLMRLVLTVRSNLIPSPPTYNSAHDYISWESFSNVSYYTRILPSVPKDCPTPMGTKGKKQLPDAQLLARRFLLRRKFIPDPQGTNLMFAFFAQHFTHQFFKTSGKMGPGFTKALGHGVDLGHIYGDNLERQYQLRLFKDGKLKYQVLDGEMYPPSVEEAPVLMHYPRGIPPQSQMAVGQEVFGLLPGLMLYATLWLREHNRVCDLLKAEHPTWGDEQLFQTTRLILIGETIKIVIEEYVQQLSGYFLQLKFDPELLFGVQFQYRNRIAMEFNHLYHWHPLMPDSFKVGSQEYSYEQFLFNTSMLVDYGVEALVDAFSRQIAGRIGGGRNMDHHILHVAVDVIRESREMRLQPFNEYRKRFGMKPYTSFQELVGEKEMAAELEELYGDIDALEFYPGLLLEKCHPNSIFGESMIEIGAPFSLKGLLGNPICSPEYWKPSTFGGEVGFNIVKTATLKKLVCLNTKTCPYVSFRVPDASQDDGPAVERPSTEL
Sequence of Mitogen-activated protein kinase 14 (Q16539 whole entry): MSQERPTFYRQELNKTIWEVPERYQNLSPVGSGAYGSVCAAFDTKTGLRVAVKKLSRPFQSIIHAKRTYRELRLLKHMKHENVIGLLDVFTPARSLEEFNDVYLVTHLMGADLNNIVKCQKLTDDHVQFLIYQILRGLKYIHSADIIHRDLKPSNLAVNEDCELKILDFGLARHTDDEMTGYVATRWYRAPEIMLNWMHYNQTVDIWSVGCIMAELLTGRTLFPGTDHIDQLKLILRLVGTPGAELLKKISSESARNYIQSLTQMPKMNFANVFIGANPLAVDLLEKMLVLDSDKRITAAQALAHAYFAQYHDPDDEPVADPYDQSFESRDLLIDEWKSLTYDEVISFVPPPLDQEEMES
Sequence of C-C chemokine receptor type 2 (P41597 whole entry): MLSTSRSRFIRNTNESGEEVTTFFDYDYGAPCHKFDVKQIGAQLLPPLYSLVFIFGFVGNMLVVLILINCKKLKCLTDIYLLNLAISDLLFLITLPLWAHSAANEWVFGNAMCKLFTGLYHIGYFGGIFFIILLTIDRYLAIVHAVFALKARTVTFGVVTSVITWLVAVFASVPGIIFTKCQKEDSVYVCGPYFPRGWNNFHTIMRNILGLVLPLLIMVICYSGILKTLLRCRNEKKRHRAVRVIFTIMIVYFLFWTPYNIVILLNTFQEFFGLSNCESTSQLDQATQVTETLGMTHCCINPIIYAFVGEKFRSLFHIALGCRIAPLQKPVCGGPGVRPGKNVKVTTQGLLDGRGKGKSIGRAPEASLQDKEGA

Row | SMILES | IC50 (Insulin receptor) | IC50 (Glucocorticoid receptor) | IC50 ([1]; hela) | IC50 [2] | IC50 (Neutrophil elastase) | IC50 [3] | IC50 [4] | IC50 [5] | IC50 ([1]; read-out: IC50) [nM] | Ki ([1]; read-out: Ki) [nM]
1 | Cc1cc(O)cc(C)c1Cl [CHLOROXYLENOL] | Not Active | Not Active | Not Active | Not Active | Not Active | Not Active | Not Active | Not Active | – | –
2 | CCCNC(=O)NS(=O)(=O)c1ccc(Cl)cc1 [CHLORPROPAMIDE] | Not Active | Not Active | Not Active | Not Active | Not Active | Not Active | Not Active | Not Active | – | –
3 | NS(=O)(=O)c1cc(C2(O)NC(=O)c3ccccc32)ccc1Cl (stereo not given) [CHLORTHALIDONE] | Not Active | Not Active | Not Active | Not Active | Not Active | Not Active | Not Active | Not Active | – | –
4 | O=C(O)CC(O)(CC(=O)O)C(=O)O [CITRIC ACID] | Not Active | Not Active | Not Active | Not Active | Not Active | Not Active | Not Active | Not Active | – | –
5 | CN1CCN(C(c2ccccc2)c2ccccc2)CC1 [CYCLIZINE] | Not Active | Not Active | Not Active | Not Active | Not Active | Not Active | Not Active | Not Active | – | –
6 | CN1C[C@@H]2C[C@H]1CN2c1cc2c(cc1F)c(=O)c(C(=O)O)cn2C1CC1 [DANOFLOXACIN] | Not Active | Not Active | Not Active | Not Active | Not Active | Not Active | Not Active | Not Active | – | –
7 | COc1cccc2c1C(=O)c1c(O)c3c(c(O)c1C2=O)C[C@@](O)(C(C)=O)C[C@@H]3O[C@H]1C[C@H](N)[C@H](O)[C@H](C)O1 [DAUNORUBICIN] | Not Active | Not Active | Not Active | Not Active | Not Active | Not Active | Not Active | Not Active | – | –
8 | O=C(O)c1cc(-c2ccc(F)cc2F)ccc1O [DIFLUNISAL] | Not Active | Not Active | Not Active | Not Active | Not Active | Not Active | Not Active | Not Active | – | –
9 | C[S+](C)[O-] [DIMETHYL SULFOXIDE] | Not Active | Not Active | Not Active | Not Active | Not Active | Not Active | Not Active | Not Active | – | –
10 | CC1=NN(c2ccccc2)C(=O)C1 [EDARAVONE] | Not Active | Not Active | Not Active | Not Active | Not Active | Not Active | Not Active | Not Active | – | –
11 | CC(C)C[C@H]1C(=O)N2CCC[C@H]2[C@]2(O)O[C@](NC(=O)[C@@H]3C=C4c5cccc6[nH]cc(c56)C[C@H]4N(C)C3)(C(C)C)C(=O)N12 [ERGOCRYPTINE] | Not Active | Not Active | – | Not Active | Not Active | Not Active | Not Active | Not Active | 16 | 7.56
12 | CC(C)(C(=O)O)c1ccc(C(O)CCCN2CCC(C(O)(c3ccccc3)c3ccccc3)CC2)cc1 (stereo not given) [FEXOFENADINE] | Not Active | Not Active | Not Active | Not Active | Not Active | Not Active | Not Active | Not Active | – | –
13 | CN1CCN(c2c(F)cc3c(=O)c(C(=O)O)cn(CCF)c3c2F)CC1 [FLEROXACIN] | Not Active | Not Active | Not Active | Not Active | Not Active | Not Active | Not Active | Not Active | – | –
